Data as given in patent US8728508B2, “Hydrophilic coating and a method for the preparation thereof” (Coloplast A/S, priority 2002, dated 2014).
In brackets after ≈: the same amount, converted by molar mass. Counter-ions that a name gives are not always drawn.

What was measured:
[1] = Hansen solubility parameter, cited from earlier work; for Delta D: dispersion; for Delta H: hydrogen bonding; for Delta P: polar
[2] = cited from earlier work
[3] = Vigorous finger rubbing under running water of UV cured coated polyurethane catheters (coating stable / lubricious); type: physicochemical
Experimental: The coating was applied to polyurethane catheters by dipping the catheters in the polymer solution at room temperature and withdrawing them at a speed of 21 mm/s. The catheters were dried for 30 minutes at 70° C. and then UV cured for 150 seconds at 40-50° C. The UV cured catheters were immediately rubbed vigorously between the fingers under running water in order to evaluate whether the coating was stable and lubricious. They were then stored in water for at least 72 hours, and vigorous finger rubbing under running water was repeated. The catheters were then scored “stable” and “lubricious” only if the coating was still stable and lubricious at this time.

[4] = 10% triethyl citrate, 79.0% solvent, 5% NMP, 6% PVP K-90, finger rubbing after at least 72 hours storage in water
[5] = 8.7% plasticiser, 5% PVP K-90, 82% ethanol, 4.35% NMP, polyurethane catheters, finger rubbing under running water after at least 72 hours storage in water

Structure (SMILES)	Delta D [1]	Delta H [1]	Delta P [1]	Solubility in water [2] [g/L]	Coating stable? [3, 4]	Coating stable? [3, 5]	Solubility in water (g/L) [2]
CC1COC(=O)O1 (stereo not shown) [Propylene carbonate]	20	4.1	18	190 (≈ 1860 mM)	–	–	–
CCO [Ethanol]	–	–	–	–	stable	–	–
CCOC(=O)CC(CC(=O)OCC)(OC(C)=O)C(=O)OCC [Acetyl triethyl citrate]	16.6	8.6	3.5	–	–	stable	–
CC(=O)OCC(CO)OC(C)=O (stereo not shown) [Glycerol diacetate]	16.4	14.2	8.9	–	–	stable	Miscible
CCOP(=O)(OCC)OCC [Triethyl phosphate]	16.7	9.2	11.4	–	–	–	–
OCC(O)CO [glycerol]	–	–	–	–	–	not stable	–
CS(C)(=O)=O [Dimethyl sulfone]	19	12.3	19.4	–	–	–	Miscible
CC1=CC(=O)CC(C)(C)C1 [Isophorone]	16.6	7.4	8.2	–	–	–	–
CC(=O)OCC(COC(C)=O)OC(C)=O [Glycerol triacetate]	16.5	9.1	4.5	71	–	stable	–
CCOC(=O)CC(O)(CC(=O)OCC)C(=O)OCC [Triethyl citrate]	–	–	–	–	–	stable	–
C1COCO1 [1,3-dioxolane]	–	–	–	–	stable	–	–
CC(=O)N1CCOCC1 [N-Acetyl morpholine]	18.3	7.8	5.3	–	–	–	Miscible
CN(C)C=O [dimethyl formamide]	–	–	–	–	stable	–	–
c1ccc2ncccc2c1 [Quinoline]	19.4	7.6	7	–	–	–	–
COC(=O)c1ccccc1O [Methyl salicylate]	16	12.3	8	–	–	–	–
